Laboratory results reported in US20230127046A1, “G9a INHIBITOR” (RIKEN, priority 2019, published 2023).

molecular target: T1, recombinant human G9a protein (Homo sapiens, UniProt Q96KQ7); test: G9a inhibitory activity test (ALPHA); assay type: biochemical; settings: biotinylated histone H3 peptide (1-21), SAM, read-out: Inhibitory activity (G9a IC50 value)
T1 construct: purchased BPS Bioscience Inc. #51001
T1 sequence (Q96KQ7 785-1210 limits assumed): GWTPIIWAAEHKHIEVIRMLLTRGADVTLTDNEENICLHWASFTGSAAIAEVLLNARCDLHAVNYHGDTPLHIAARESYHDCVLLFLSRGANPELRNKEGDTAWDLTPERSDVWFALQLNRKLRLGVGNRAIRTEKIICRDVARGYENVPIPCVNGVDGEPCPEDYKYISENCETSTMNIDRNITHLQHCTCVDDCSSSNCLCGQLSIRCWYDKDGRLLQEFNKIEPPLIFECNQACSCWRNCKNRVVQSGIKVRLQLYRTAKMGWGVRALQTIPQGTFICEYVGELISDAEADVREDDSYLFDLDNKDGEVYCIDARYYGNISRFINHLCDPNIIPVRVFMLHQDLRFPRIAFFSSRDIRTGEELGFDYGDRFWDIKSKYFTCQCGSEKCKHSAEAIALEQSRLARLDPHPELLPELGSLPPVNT
Description: The G9a inhibitory activity of each compound was evaluated by measuring the enzymatic activity of G9a by amplified luminescence proximity homogeneous assay (ALPHA). First, 7.5 μL of a dilution of recombinant human G9a protein (BPS Bioscience Inc., #51001) diluted to 0.05 to 0.1 nM with a Tris buffer solution (50 mM Tris-HCl [pH 9.0], 50 mM NaCl, 0.01% Tween-20, 1 mM DTT), and 0.5 μL of the test compound were added to each well of a 384-well microplate (AlphaPlate-384 Shallow Well, PerkinElmer, Inc., #6008359), mixed by vortex, and incubated at room temperature for 10 minutes. 500 nM biotinylated histone H3 peptide (1-21) (AnaSpec Inc., #61702) and 150 μM SAM (Sigma-Aldrich Co. LLC, #A7007) were mixed at 1:1 in advance, and 2 μL of the mixture was added to each well, mixed by vortex, and then incubated at room temperature for 1 hour. AlphaLISA anti-H3K9me2 acceptor beads (PerkinElmer, Inc., #AL117C) and AlphaScreen streptavidin donor beads (PerkinElmer, Inc., #6760002B) were each diluted with an epigenetic buffer (PerkinElmer, Inc., AlphaLISA Epigenetics Buffer Kit #AL008C) to a final concentration of […] after addition. These dilutions were added to the reaction solution in the dark and incubated at room temperature for 1 hour in the dark. Then, measurement was performed using the EnSpire Alpha plate reader (PerkinElmer, Inc., Waltham, Mass., USA). The G9a inhibitory activity of the test compound was calculated as a compound concentration necessary for suppressing G9a enzymatic activity by 50% (IC50 value), by determining the percent inhibition of the compound when the value of a control without the addition of the compound was defined as 0% and the value of a control without the addition of the enzyme was defined as 100%.

| IC50 | Compound |
| --- | --- |
| ≥ 200 nM | CCCCC(NC(=O)c1[nH]c2c(c1C)C(=O)CC(C)(C)C2)C(=O)NCc1ccc(CCCO)cc1 (stereo not drawn) [Example 1-1, N-[1-[[4-(3-hydroxypropyl)phenyl]methylamino]-1-oxohexan-2-yl]-3,6,6-trimethyl-4-oxo-5,7-dihydro-1H-indole-2-carboxamide] |
| 50 to 200 nM | CCCCC(NC(=O)c1[nH]c2c(c1C)C(=O)CC(C)(C)C2)C(=O)Nc1ccccc1SC (stereo not drawn) [Example 1-2] |
| 50 to 200 nM | CCCCC(NC(=O)c1[nH]c2c(c1C)C(=O)CC(C)(C)C2)C(=O)Nc1ccc(OC2CN(C)C2)nc1 (stereo not drawn) [Example 1-3] |
| < 50 nM | CCCCC(NC(=O)c1[nH]c2c(c1C)C(=O)CC(C)(C)C2)C(=O)Nc1ccc(CCN2CCCCC2)cc1 (stereo not drawn) [Example 1-4] |
| < 50 nM | CCCCC(NC(=O)c1[nH]c2c(c1C)C(=O)CC(C)(C)C2)C(=O)Nc1ccc(NC2CCN(C)CC2)nc1 (stereo not drawn) [Example 1-5] |
| 50 to 200 nM | CCCCC(NC(=O)c1[nH]c2c(c1C)C(=O)CC(C)(C)C2)C(=O)Nc1ccc(OC2CCN(C)CC2)nc1 (stereo not drawn) [Example 1-6] |
| ≥ 200 nM | CCCCC(NC(=O)c1[nH]c2c(c1C)C(=O)CC(C)(C)C2)C(=O)Nc1ccc(CN2CCC(F)(F)CC2)cc1 (stereo not drawn) [Example 1-7] |
| < 50 nM | CCCCC(NC(=O)c1[nH]c2c(c1C)C(=O)CC(C)(C)C2)C(=O)Nc1ccc(OC2CCN(C)CC2)cc1OC (stereo not drawn) [Example 1-8] |
| ≥ 200 nM | CCCCC(NC(=O)c1[nH]c2c(c1C)C(=O)CC(C)(C)C2)C(=O)Nc1ccc(C#N)cc1 (stereo not drawn) [Example 1-9] |
| ≥ 200 nM | CCCCC(NC(=O)c1[nH]c2c(c1C)C(=O)CC(C)(C)C2)C(=O)Nc1cccc(C#N)c1 (stereo not drawn) [Example 1-10] |
| ≥ 200 nM | CCCCC(NC(=O)c1[nH]c2c(c1C)C(=O)CC(C)(C)C2)C(=O)Nc1ccccc1OC (stereo not drawn) [Example 1-11] |
| ≥ 200 nM | CCCCC(NC(=O)c1[nH]c2c(c1C)C(=O)CC(C)(C)C2)C(=O)Nc1ccccc1C(C)C (stereo not drawn) [Example 1-12] |
| ≥ 200 nM | CCCCC(NC(=O)c1[nH]c2c(c1C)C(=O)CC(C)(C)C2)C(=O)Nc1ccccc1C (stereo not drawn) [Example 1-13] |
| ≥ 200 nM | CCCCC(NC(=O)c1[nH]c2c(c1C)C(=O)CC(C)(C)C2)C(=O)Nc1cccc2ncccc12 (stereo not drawn) [Example 1-14] |
| ≥ 200 nM | CCCCC(NC(=O)c1[nH]c2c(c1C)C(=O)CC(C)(C)C2)C(=O)Nc1cncc2ccccc12 (stereo not drawn) [Example 1-15] |
| 50 to 200 nM | CCCCC(NC(=O)c1[nH]c2c(c1C)C(=O)CC(C)(C)C2)C(=O)Nc1ccccc1SCC (stereo not drawn) [Example 1-16] |
| ≥ 200 nM | CCCCC(NC(=O)c1[nH]c2c(c1C)C(=O)CC(C)(C)C2)C(=O)Nc1ccnn1CC (stereo not drawn) [Example 1-17] |
| 50 to 200 nM | CCCCC(NC(=O)c1[nH]c2c(c1C)C(=O)CC(C)(C)C2)C(=O)NCc1ccc(OCCN(C)C)cc1 (stereo not drawn) [Example 1-18] |
| ≥ 200 nM | CCCCC(NC(=O)c1[nH]c2c(c1C)C(=O)CC(C)(C)C2)C(=O)Nc1ccccc1CCC (stereo not drawn) [Example 1-19] |

| IC50 | Compound |
| --- | --- |
| < 50 nM | CCCCC(NC(=O)c1[nH]c2c(c1C)C(=O)CC(C)(C)C2)C(=O)Nc1ccc(N(C)C2CCN(C)CC2)nc1 (stereo not drawn) [Example 1-20] |
| ≥ 200 nM | CCCCC(NC(=O)c1[nH]c2c(c1C)C(=O)CC(C)(C)C2)C(=O)Nc1ccc(C)cc1 (stereo not drawn) [Example 1-21] |
| ≥ 200 nM | CCCCC(NC(=O)c1[nH]c2c(c1C)C(=O)CC(C)(C)C2)C(=O)Nc1ccccc1COC (stereo not drawn) [Example 1-22] |
| 50 to 200 nM | CCCCC(NC(=O)c1[nH]c2c(c1C)C(=O)CC(C)(C)C2)C(=O)Nc1ccccc1CC (stereo not drawn) [Example 1-23] |
| ≥ 200 nM | CCCCC(NC(=O)c1[nH]c2c(c1C)C(=O)CC(C)(C)C2)C(=O)NC1CCCCC1 (stereo not drawn) [Example 1-24] |
| ≥ 200 nM | CCCCC(NC(=O)c1[nH]c2c(c1C)C(=O)CC(C)(C)C2)C(=O)Nc1cccc(C)c1C (stereo not drawn) [Example 1-25] |
| ≥ 200 nM | CCCCC(NC(=O)c1[nH]c2c(c1C)C(=O)CC(C)(C)C2)C(=O)Nc1ccc(F)cc1 (stereo not drawn) [Example 1-26] |
| ≥ 200 nM | CCCCC(NC(=O)c1[nH]c2c(c1C)C(=O)CC(C)(C)C2)C(=O)Nc1ccccc1C(F)(F)F (stereo not drawn) [Example 1-27] |
| ≥ 200 nM | CCCCC(NC(=O)c1[nH]c2c(c1C)C(=O)CC(C)(C)C2)C(=O)Nc1cccc(C)c1OC (stereo not drawn) [Example 1-28] |
| ≥ 200 nM | CCCCC(NC(=O)c1[nH]c2c(c1C)C(=O)CC(C)(C)C2)C(=O)NCc1ccccc1O (stereo not drawn) [Example 1-29] |
| ≥ 200 nM | CCCCC(NC(=O)c1[nH]c2c(c1C)C(=O)CC(C)(C)C2)C(=O)Nc1cccc(Cl)c1C (stereo not drawn) [Example 1-30] |
| ≥ 200 nM | CCCCC(NC(=O)c1[nH]c2c(c1C)C(=O)CC(C)(C)C2)C(=O)Nc1cccc2ccccc12 (stereo not drawn) [Example 1-31] |
| < 50 nM | CCCCC(NC(=O)c1[nH]c2c(c1C)C(=O)CC(C)(C)C2)C(=O)Nc1ccc(OC2CCN(C)CC2)cc1 (stereo not drawn) [Example 1-32] |
| ≥ 200 nM | CCCC[C@H](NC(=O)c1[nH]c2c(c1C)C(=O)CC(C)(C)C2)C(=O)Nc1ccccc1OC [Example 1-33] |
| ≥ 200 nM | CCCCC(NC(=O)c1[nH]c2c(c1C)C(=O)CC(C)(C)C2)C(=O)Nc1cccc2c1CCC2 (stereo not drawn) [Example 1-34] |
| ≥ 200 nM | CCCCC(NC(=O)c1[nH]c2c(c1C)C(=O)CC(C)(C)C2)C(=O)Nc1cccc2c1OCC2 (stereo not drawn) [Example 1-35] |
| ≥ 200 nM | CCCCC(NC(=O)c1[nH]c2c(c1C)C(=O)CC(C)(C)C2)C(=O)Nc1c(C)cccc1OC (stereo not drawn) [Example 1-36] |
| ≥ 200 nM | CCCCC(NC(=O)c1[nH]c2c(c1C)C(=O)CC(C)(C)C2)C(=O)Nc1ccc(C)cc1OC (stereo not drawn) [Example 1-37] |
| ≥ 200 nM | CCCCC(NC(=O)c1[nH]c2c(c1C)C(=O)CC(C)(C)C2)C(=O)Nc1cc(C)ccc1OC (stereo not drawn) [Example 1-38] |

| IC50 | Compound |
| --- | --- |
| ≥ 200 nM | CCCCC(NC(=O)c1[nH]c2c(c1C)C(=O)CC(C)(C)C2)C(=O)NCc1ccccc1 (stereo not drawn) [Example 1-39] |
| ≥ 200 nM | CCCCC(NC(=O)c1[nH]c2c(c1C)C(=O)CC(C)(C)C2)C(=O)NC(C)(C)c1ccccc1 (stereo not drawn) [Example 1-40] |
| ≥ 200 nM | CCCCC(NC(=O)c1[nH]c2c(c1C)C(=O)CC(C)(C)C2)C(=O)NCc1ccccc1Cl (stereo not drawn) [Example 1-41] |
| ≥ 200 nM | CCCCC(NC(=O)c1[nH]c2c(c1C)C(=O)CC(C)(C)C2)C(=O)NCc1cccc(Cl)c1 (stereo not drawn) [Example 1-42] |
| ≥ 200 nM | CCCCC(NC(=O)c1[nH]c2c(c1C)C(=O)CC(C)(C)C2)C(=O)NCc1ccc(Cl)cc1 (stereo not drawn) [Example 1-43] |
| ≥ 200 nM | CCCCC(NC(=O)c1[nH]c2c(c1C)C(=O)CC(C)(C)C2)C(=O)NCc1ccccc1OC (stereo not drawn) [Example 1-44] |
| ≥ 200 nM | CCCCC(NC(=O)c1[nH]c2c(c1C)C(=O)CC(C)(C)C2)C(=O)NCc1cccc(OC)c1 (stereo not drawn) [Example 1-45] |
| ≥ 200 nM | CCCCC(NC(=O)c1[nH]c2c(c1C)C(=O)CC(C)(C)C2)C(=O)NCc1ccc(OC)cc1 (stereo not drawn) [Example 1-46] |
| ≥ 200 nM | CCCCC(NC(=O)c1[nH]c2c(c1C)C(=O)CC(C)(C)C2)C(=O)NCc1cccc2ccccc12 (stereo not drawn) [Example 1-49] |
| ≥ 200 nM | CCCCC(NC(=O)c1[nH]c2c(c1C)C(=O)CC(C)(C)C2)C(=O)NCc1ccc2ccccc2c1 (stereo not drawn) [Example 1-50] |
| < 50 nM | CCCCC(NC(=O)c1[nH]c2c(c1C)C(=O)CC(C)(C)C2)C(=O)NCc1ccc(CN(C)C)cc1 (stereo not drawn) [Example 1-51] |
| ≥ 200 nM | CCCCC(NC(=O)c1[nH]c2c(c1C)C(=O)CC(C)(C)C2)C(=O)NCc1ccc(C#N)cc1 (stereo not drawn) [Example 1-52] |
| 50 to 200 nM | CCCCC(NC(=O)c1[nH]c2c(c1C)C(=O)CC(C)(C)C2)C(=O)NC1(c2ccccc2)CC1 (stereo not drawn) [Example 1-53] |
| ≥ 200 nM | CCCCC(NC(=O)c1[nH]c2c(c1C)C(=O)CC(C)(C)C2)C(=O)NCc1ccc(N2CCN(C)CC2)cc1 (stereo not drawn) [Example 1-54] |
| ≥ 200 nM | CCCCC(NC(=O)c1[nH]c2c(c1C)C(=O)CC(C)(C)C2)C(=O)Nc1cccc2c1CCN(C)C2 (stereo not drawn) [Example 1-55] |
| ≥ 200 nM | CCCCC(NC(=O)c1[nH]c2c(c1C)C(=O)CC(C)(C)C2)C(=O)NC1CCN(CCCN2CCCC2)CC1 (stereo not drawn) [Example 1-56] |
| ≥ 200 nM | CCCCC(NC(=O)c1[nH]c2c(c1C)C(=O)CC(C)(C)C2)C(=O)Nc1ccc(OCCN(C)C(=O)OC(C)(C)C)nc1 (stereo not drawn) [Example 1-57] |
| ≥ 200 nM | CCOc1ccc(NC(=O)C(CCC2CC2)NC(=O)c2[nH]c3c(c2C)C(=O)CC(C)(C)C3)cn1 (stereo not drawn) [Example 1-58] |
| 50 to 200 nM | Cc1c(C(=O)NC(CCC2CC2)C(=O)N2CCc3c(CN(C)C)cccc32)[nH]c2c1C(=O)CC(C)(C)C2 (stereo not drawn) [Example 1-59] |
